Reference: patent publication US20160168147A1, “ISOTOPICALLY ENRICHED AZAINDOLES” (Vertex Pharmaceuticals Incorporated, priority 2013, published 2016)

Tested on: Cryopreserved Human Hepatocytes
Experiment: Assessment of metabolite profile and kinetic isotope effect in human hepatocytes (Example 6)
Assay type: in vitro ADME
Conditions: 3 μM and 10 μM, sampled at 120 minutes, LC-MS MRM
Protocol: Cryopreserved Human Hepatocytes lot TFF (purchased from Celsis) were used. Hepatocytes were thawed using CHRM and suspended in Williams E media containing cell maintenance supplement package. 1000 μL of a final cell concentration 1 million cells/mL were placed in individual incubation wells (24-well plate set-up). Incubation was conducted at 37° C. and kept in a CO2/O2 humidified incubator. 10 μL of compound stock was spiked into cell the matrix to achieve final incubation concentrations of 3 μM and 10 μM. The matrix was swirled prior to the removal of each time-point and 50 μL of sample were removed and added to 200 μL of acetonitrile containing internal standard, IS. Time-points were sampled at 120 minutes using MRM on an ABSciex API5500-QTrap paired with an Agilent 1290 UPLC and a CTC PAL autosampler. A 20-minute gradient method using a HALO C18 2.1×50 mm 2.7 μm column made by Advanced Materials Technology was used for the analysis. /

new metabolites observed: no new metabolites were observed
Structure (SMILES): [2H]c1[nH]c2ncccc2c1-c1nccc(N[C@](C)(CC)C(=O)NCC(F)(F)F)n1 [Compound 1-a, (2R)-2-[[2-(2-deuterio-1H-pyrrolo[2,3-b]pyridin-3-yl)pyrimidin-4-yl]amino]-2-methyl-N-(2.2.2-trifluoroethyl)butanamide]
